Test results: patent US5077207A, “Process for the production of L-threonine by fermentation” (Ajinomoto Co., Inc., priority 1989, dated 1991)

How the values were obtained:
AJ 12360 (Mutant) = test: Degree of AHV resistance (growth in glucose minimum liquid medium, absorbance); assay type: cell-based; conditions: [Brevibacterium] flavum, 24 h, read-out: Relative Degree of Growth (%)
Method: (§1) Thereafter, the degrees of AHV resistance of DPS deleted strains AJ 12360 and AJ 12361 were compared against their parent strains. The degree of AHV resistance was determined by cultivating the strain in the complete agar plate medium shown in Table 2 which also contained 1 g/l of DAP, […] of dipicolinic acid and further, in the case of AJ 12361 and its parent strain AC 664, 300 mg/l of L-histidine hydrochloride as a growth promoting substance, at 30° C. for 24 hours. The same medium dispensed in 3 ml into test tubes, was inoculated with the cells, and the inoculated media were cultured while being shaked for 24 hours. The absorbance of each medium was measured at 566 nm under conditions in which AHV was added or was not added to a given medium. To each glucose minimum liquid medium prepared were added, as growth promoting substances, 200 mg/l of L-histidine hydrochloride, in the case of AJ 12361 and AC 664 strains, and 500 mg/l each of DAP and lysine in the case of AJ 12360 and AJ 11955 strains. Especially, since DAP or DAP and lysine often promoted the growth of the DPS deleted or reduced strain, DAP was added to the liquid and plate media in the experiments described so far as needed. […]

AJ 12361 (Mutant) = test: as above; assay type: cell-based; conditions: [Brevibacterium] flavum, 24 h, read-out: Relative Degree of Growth (%)
Method: as §1

Homoserine Dehydrogenase = Homoserine Dehydrogenase (Corynebacterium glutamicum, UniProt P08499); test: Homoserine dehydrogenase feedback inhibition by threonine (crude enzyme solution); assay type: biochemical, Brevibacterium flavum; conditions: 1 mM threonine
Method: The amount of threonine produced in a given fermentation experiment was measured by the method described below, and the amount of lysine produced was measured by an acidic ninhydrin method. Further, the DPS activity was measured as follows. A medium obtained by adding 1 g/l of DAP to a medium useful for threonine production shown in Table 3 was dispensed in 20 ml amounts into 500 ml flasks which could be shaken. The flasks were sterilized by autoclaving. The medium compositions used were N50S30 for the AJ 12360 strain and N25S35 for the AJ 12361-2 and DA 110 strains. Each medium was inoculated with one loop of the strain which had been previously cultivated in a complete agar plate medium shown in Table 2. Each medium was supplemented with 1 g/l of DAP and 300 mg/l of L-histidine hydrochloride at 30° C. for 24 hours, and culturing was conducted at 30° C. for 40 hours in the shaking flasks. The cells were collected and washed with a 0.2% potassium chloride solution. These washed cells were suspended in a 50 mM potassium phosphate buffer (pH 7.0), and then were centrifugally separated after ultrasonic treatment in a supernatant. The supernatant was gel filtered through a Sephadex G25 column using the same buffer to prepare a crude enzyme solution. The activity was measured by carrying out the reaction at 30° C. for 10 minutes, terminating the reaction by adding 1 ml of 0.05 N hydrochloric acid thereto, and then measuring the change in absorbance at 340 nm by using a reaction mixture shown in Table 8 to determine the amount of pyruvic acid consumed. The control for this reaction was a DL-aspartate-β-semialdehyde-free system. The HD activity was measured as follows. The crude enzyme solution was prepared in a manner similar to that employed in the above-described DPS activity measurement, except that a 0.1 M potassium phosphate buffer containing 0.5 M potassium chloride (pH 7.0) was used as the buffer instead of the 50 mM potassium phosphate buffer. The activity measurement was conducted by measuring the reduction in absorbance at 340 nm in the reaction system shown in Table 9. The control for this reaction was a DL-aspartate-β-semialdehyde-free system. […]

Chain of Homoserine Dehydrogenase (P08499 whole entry): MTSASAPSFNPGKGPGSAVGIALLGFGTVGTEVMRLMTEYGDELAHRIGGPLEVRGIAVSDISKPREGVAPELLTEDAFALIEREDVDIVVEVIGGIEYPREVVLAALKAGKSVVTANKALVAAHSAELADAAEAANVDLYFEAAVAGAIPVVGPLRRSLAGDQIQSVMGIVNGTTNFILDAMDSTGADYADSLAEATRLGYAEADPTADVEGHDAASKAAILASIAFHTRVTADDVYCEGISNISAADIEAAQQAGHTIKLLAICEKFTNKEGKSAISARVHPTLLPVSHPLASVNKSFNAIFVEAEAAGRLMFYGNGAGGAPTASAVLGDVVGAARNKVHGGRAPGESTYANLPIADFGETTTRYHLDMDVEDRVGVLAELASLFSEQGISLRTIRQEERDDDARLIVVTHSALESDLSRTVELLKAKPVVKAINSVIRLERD

Structure (SMILES) | activity at 200000 µg/mL (AJ 12360 (Mutant)) [%] | activity at 500000 µg/mL (AJ 12360 (Mutant)) [%] | activity at 1 g/mL (AJ 12360 (Mutant)) [%] | activity at 200000 µg/mL (AJ 12361 (Mutant)) [%] | activity at 500000 µg/mL (AJ 12361 (Mutant)) [%] | activity at 1 g/mL (AJ 12361 (Mutant)) [%] | Homoserine Dehydrogenase Feedback Inhibition (%)** (Homoserine Dehydrogenase; enzyme from strain AC 664 (Parent strain)) [%] | Homoserine dehydrogenase feedback inhibition by threonine (%) (Homoserine Dehydrogenase; enzyme from strain AJ 11955 (parent strain)) | Homoserine dehydrogenase feedback inhibition by threonine (%) (Homoserine Dehydrogenase; enzyme from strain AJ 12360 (mutant)) | Homoserine Dehydrogenase Feedback Inhibition (%)** (Homoserine Dehydrogenase; enzyme from strain AJ 12361 (Mutant)) [%] | Homoserine Dehydrogenase Feedback Inhibition (%)** (Homoserine Dehydrogenase; enzyme from strain AJ12362 (Mutant)) [%] | Homoserine Dehydrogenase Feedback Inhibition (%)** (Homoserine Dehydrogenase; enzyme from strain AJ12363 (Mutant)) [%] | Homoserine Dehydrogenase Feedback Inhibition (%)** (Homoserine Dehydrogenase; enzyme from strain DA 110 (Mutant)) [%]
CCC(O)C(N)C(=O)O (stereo not drawn) [AHV, α-amino-β-hydroxyvaleric acid] | 46.7 | 42.6 | 37.5 | 105 | 65.8 | 39.1 |  |  |  |  |  |  | 
C[C@@H](O)[C@H](N)C(=O)O [threonine, L-threonine] |  |  |  |  |  |  | 98 | 98 | 98 | 98 | 96 | 16 | 98
